For the test, the system named is gramineous weeds, broadleaf weeds and sedge weeds. As to the kind of experiment: Weed control efficacy, greenhouse pot test, survival rate compared with Colby value (Table 1). In kind it is in vivo. The source says:
The desired efficacy of the combination of three active compounds can be calculated through “Colby formula” as follows (S. R. Colby, “Calculating Synergistic and Antagonistic Responses of Herbicide Combinations, Weeds 1967, 15, 20-22): if
A is the activity of active compound A when used in an amount of mg/ha or concentrate of mppm, expressed as a percentage of untreated control;
B is the activity of active compound B when used in an amount of ng/ha or concentrate of nppm, expressed as a percentage of untreated control;
C is the activity of active compound C when used in an amount of hg/ha or concentrate of hppm, expressed as a percentage of untreated control;
E0 is the anticipated activity of active compounds A, B and C when used in an amount of m, n, h g/ha or concentrate of m, n, h ppm, E0=A×B×C/(100^(N-1)) N=3;
If the observed actual activity E is greater than the anticipated activity (E0), then the composition has synergistic effect.
If the observed actual efficiency of weed control (E) through the biology test is greater than the anticipated value (E0) as calculated via Colby's equation, then it represents that the efficacy of herbicidal composition is greater than the sum of efficacy of each component, which means the composition has synergistic effect.
Use stem and leaf treatment for potted grown plant(NY/T 1155.4-2006): fill a plastic pot (6 cm height, 9 cm diameter) with a quantity of soil and sow 15 to 20 seeds of monocotyledonous weeds and dicotyledonous weeds in the plastic pot, cover it with 0.5 to 1 cm thick of fine soil and then put it in greenhouse for cultivation. When weeds grow to the 2 to 4 leave stage, conduct the stem and leaf spray treatment with 1 mL herbicidal solution on each pot and repeat four times for each treatment and leave some pots untreated as control group. Keep the treated pots in a greenhouse for cultivation and observe the growing status of target weeds periodically. Conduct the visual test on the target weeds regarding the damage symptoms and growth inhibition effect after 21 days. Weigh up the fresh weight above the ground or plant fresh weight and evaluate the toxicity of the herbicidal formulation on target weeds based on the fresh weight inhibition rate of the target.
Prepare the following formulations according to specific weight percentages: 1. Pyroxasulfone; 2. Mesotrione; 3 Atrazine; 4. Pyroxasulfone+Mesotrione; 5. Pyroxasulfone+Atrazine; 6. Mesotrione+Atrazine; 7. Pyroxasulfone+Mesotrione+Atrazine. After that, dilute above formulations with water to obtain diluted formulations.
Conduct visual assessment the damage symptom and growth inhibition status of target weeds after 21 days. Weigh up the fresh weight above the ground and calculate the inhibition rate of fresh weight (%).
Anticipated effects of the special combined three active components can be calculated through so called “Colby formula”. If the actual efficiency of weed control observed during the biology test exceeds the anticipated value […] calculated by Colby's formula, then it represents that the efficacy of herbicidal composition is greater than the sum of efficacy of each component, which means the composition has synergistic effect.
The synergistic herbicidal composition of present invention has conducted test on the following important harmful plants (gramineous weeds, broadleaf weeds, sedge weeds) with wide herbicidal spectrum: Echinochloa oryzicola, Digitaria spp., Stellaria media, Amaranthus retroflexus, Fallopia(ex Polygonum) Convolvulus, Abuthilon theophrasti, Sagittariatrifolia, Oriental Waterplantain Rhizome, Herb of Pygmy Arrowhead, Monochoria korsakowii, Lindernia procumbens, Solanum nigrum L., Scirpus juncoides Roxb, Cyperus difformis L., Chenopodium alum L., Avena fatua L. and Galium aparine L. var. tenerum Gren. et (Godr.) Rebb.

This note sets out measurements from patent US10918108B2, “Synergistic herbicidal composition” (JIANGSU ROTAM CHEMISTRY CO., LTD, priority 2016, dated 2021).

As to `CCNc1nc(Cl)nc(NC(C)C)n1` [Atrazine, 2-chloro-4-ethylamino-6-isopropylamino-1,3,5-triazine], the “Actual survival rate (%)” value is, setting by setting: (application rate 1 g/ha) 100%; (application rate 50 g/ha) 100%; (application rate 100 g/ha) 67%.

Turning to `CS(=O)(=O)c1ccc(C(=O)C2C(=O)CCCC2=O)c([N+](=O)[O-])c1` [Mesotrione, 2-(4-mesyl-2-nitrobenzoyl)cyclohexane-1,3-dione], the “Actual survival rate (%)” value runs as follows: (application rate 1 g/ha) 100%; (application rate 25 g/ha) 87%; (application rate 50 g/ha) 74%.

With `Cn1nc(C(F)(F)F)c(CS(=O)(=O)C2=NOC(C)(C)C2)c1OC(F)F` [Pyroxasulfone, 3-[5-(difluoromethoxy)-1-methyl-3-(trifluoromethyl)pyrazol-4-ylmethylsulfonyl]-4,5-dihydro-5,5-dimethyl-1,2-oxazole], the “Actual survival rate (%)” value was found to be 89% (application rate 1 g/ha), 78% (application rate 5 g/ha) and 60% (application rate 10 g/ha).
